The target of experiment [1] is T1, 4-diphosphocytidyl-2-C-methyl-D-erythritol kinase (Burkholderia thailandensis (strain ATCC 700388 / DSM 13276 / CIP106301 / E264)) (UniProt Q2T1B6).
T1 sequence (whole entry): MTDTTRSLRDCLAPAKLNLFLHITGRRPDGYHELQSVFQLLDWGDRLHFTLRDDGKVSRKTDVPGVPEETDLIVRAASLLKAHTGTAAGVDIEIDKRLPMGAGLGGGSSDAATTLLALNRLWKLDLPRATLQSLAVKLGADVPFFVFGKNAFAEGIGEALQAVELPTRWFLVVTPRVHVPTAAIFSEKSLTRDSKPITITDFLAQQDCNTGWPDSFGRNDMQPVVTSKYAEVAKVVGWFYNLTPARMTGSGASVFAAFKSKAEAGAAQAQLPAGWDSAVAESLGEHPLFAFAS
In words: Binding affinity to Burkholderia thailandensis E264 recombinant IspE (1 to 293 residues) assessed as maximum spectral signal at 250 uM by STD-NMR analysis.

Experiment [2] addresses T1, 4-diphosphocytidyl-2-C-methyl-D-erythritol kinase (Burkholderia thailandensis (strain ATCC 700388 / DSM 13276 / CIP106301 / E264)). In words: Binding affinity to Burkholderia thailandensis E264 recombinant IspE (1 to 293 residues) at 250 uM by STD-NMR analysis in presence of ADP.
For experiment [3] the target is unchanged. In words: Binding affinity to Burkholderia thailandensis E264 recombinant IspE (1 to 293 residues) at 250 uM by STD-NMR analysis in presence of ADP and CDP.
Experiment [4] addresses T2, 2-C-methyl-D-erythritol 4-phosphate cytidylyltransferase (Burkholderia thailandensis (strain ATCC 700388 / DSM 13276 / CIP106301 / E264)) (UniProt Q2SWT6).
T2 sequence (whole entry): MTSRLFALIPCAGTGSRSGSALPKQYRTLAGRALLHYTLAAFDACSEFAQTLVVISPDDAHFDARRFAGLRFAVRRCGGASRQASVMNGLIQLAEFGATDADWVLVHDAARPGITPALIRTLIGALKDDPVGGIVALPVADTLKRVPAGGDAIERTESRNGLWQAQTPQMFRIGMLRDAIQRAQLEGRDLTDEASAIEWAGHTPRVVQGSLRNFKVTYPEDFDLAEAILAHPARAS
In words: Binding affinity to Burkholderia thailandensis E264 recombinant IspD (1 to 236 residues) assessed as maximum spectral signal at 250 uM by STD-NMR analysis.

Experiment [5] deals with T2, 2-C-methyl-D-erythritol 4-phosphate cytidylyltransferase (Burkholderia thailandensis (strain ATCC 700388 / DSM 13276 / CIP106301 / E264)). Kind of experiment: Binding affinity to Burkholderia thailandensis E264 recombinant IspD (1 to 236 residues) at 250 uM by STD-NMR analysis in presence of CDP.
The test system of experiment [6] is Burkholderia thailandensis. In words: Antibacterial activity against Burkholderia thailandensis E264 at 1 mM after 24 to 48 hrs by Kirby-Bauer disc diffusion susceptibility test. It counts as functional. Particulars: read-out: DIZ. (In general: A growth-free zone around the sample is the usual read-out of agar diffusion tests.)
Experiment [7] concerns Burkholderia thailandensis. In words: Antibacterial activity against Burkholderia thailandensis E264 at 0.5 mM after 24 to 48 hrs by Kirby-Bauer disc diffusion susceptibility test. It is filed as functional. Particulars: read-out: DIZ.
The subject of experiment [8] is Burkholderia thailandensis. In words: Antibacterial activity against Burkholderia thailandensis E264 at 0.1 mM after 24 to 48 hrs by Kirby-Bauer disc diffusion susceptibility test. Particulars: read-out: DIZ. It is filed as functional.
For experiment [9], the system named is Pseudomonas aeruginosa. In words: Antibacterial activity against Pseudomonas aeruginosa ATCC 27853 at 1 mM after 24 to 48 hrs by Kirby-Bauer disc diffusion susceptibility test. It counts as functional. To be noted: read-out: DIZ.
Experiment [10] has as its system Pseudomonas aeruginosa. Kind of experiment: Antibacterial activity against Pseudomonas aeruginosa ATCC 27853 at 0.5 mM after 24 to 48 hrs by Kirby-Bauer disc diffusion susceptibility test. Particulars: read-out: DIZ. It counts as functional.
Experiment [11] concerns Pseudomonas aeruginosa. In words: Antibacterial activity against Pseudomonas aeruginosa ATCC 27853 at 0.1 mM after 24 to 48 hrs by Kirby-Bauer disc diffusion susceptibility test. It is filed as functional. To be noted: read-out: DIZ.

Structures are written as SMILES. Calls of active or inactive are those of the source. The rule behind the calls is not given here.

For `Cn1ncc2c(NCCc3ccc(Cl)cc3)ncnc21`, the %max in experiment [1] amounted to 12%. Also, the result in experiment [2] was Active. The result in experiment [3] was inactive.

On to `Cn1ncc2c(NCCc3c(F)cccc3Cl)ncnc21`, for which the %max in experiment [4] came out at 6%; in experiment [1] it was 14%. In addition, the outcome in experiment [5] and in experiment [3] was inactive. Further, the result in experiment [2] was Active.

In the case of `Cn1ncc2c(NCCc3c[nH]c4ccccc34)ncnc21`, the zone of inhibition at 1000 µM in [6] stood at 14 mm; in experiment [9], 0 mm. Further, the zone of inhibition at 500 µM in experiment [7] was 12 mm; in experiment [10] it was 0 mm. For the same molecule, the zone of inhibition at 100 µM in [8] and in experiment [11] was 0 mm in each case. Besides, in experiment [1], the %max amounted to 14%. In [2], the outcome was Active. In addition, the outcome in experiment [3] was inactive.

On to `Cn1ncc2c(NCCc3ccc(F)cc3)ncnc21`, for which the %max in experiment [1] came out at 11%. For the same molecule, the outcome in experiment [2] was Active. For the same molecule, the outcome in experiment [3] was inactive.

With `Cn1ncc2c(NCCc3cccc(F)c3)ncnc21`, in experiment [1], the %max amounted to 17%. Also, in experiment [2], the outcome was Active. Further, the outcome in experiment [3] was inactive.

For `CC(C)(C)n1ncc2c(NCc3ccc(Cl)c(Cl)c3)ncnc21`, the %max in experiment [1] stood at 21%. In experiment [2], the outcome was Active. For the same molecule, the result in [3] was inactive.

In the case of `Cn1ncc2c(NCCc3ccc(Cl)cc3Cl)ncnc21`, the %max in experiment [4] is 8%; in [1] it was 28%. In addition, the outcome in experiment [5] and in experiment [2] was Active. Further, in experiment [3], the outcome was inactive.

With `CC(C)(C)n1ncc2c(NCc3cccc([N+](=O)[O-])c3)ncnc21`, in experiment [1], the %max came out at 21%. Moreover, in experiment [2], the outcome was Active. The result in experiment [3] was inactive.

In the case of `Cn1ncc2c(NCc3ccc(Cl)c(Cl)c3)ncnc21`, the %max in experiment [4] was found to be 6%; in experiment [1], 24%. Besides, the outcome in experiment [5] and in [2] was Active. Further, the result in experiment [3] was inactive.

In the case of `Cn1ncc2c(NCc3ccc(Cl)cc3)ncnc21`, the results for the %max in experiment [4] and in experiment [1] were 6% and 12%, respectively. The outcome in [5] and in [2] was Active. Further, the result in [3] was inactive.

For `CC(C)(C)n1ncc2c(NCCc3c(Cl)cccc3Cl)ncnc21`, the %max in experiment [1] worked out at 12%. Besides, the result in [2] was Active. Besides, the outcome in [3] was inactive.

Regarding `CC(C)(C)n1ncc2c(NCCO)ncnc21`, the zone of inhibition at 1000 µM in experiment [6] turned out to be 12 mm; in experiment [9], 20 mm. Besides, the results for the zone of inhibition at 500 µM in [7] and in experiment [10] were 8 mm and 12 mm, respectively. For the same molecule, the zone of inhibition at 100 µM in [8] and in [11] was 0 mm throughout.

Turning to `Cn1ncc2c(NCCc3ccc(O)cc3)ncnc21`, the results for the %max in experiment [4] and in experiment [1] were 14% and 16%, respectively. For the same molecule, the result in [5] and in experiment [2] was Active. Also, the outcome in experiment [3] was inactive.

As for `Cn1ncc2c(NCc3ccc(F)cc3)ncnc21`, the %max in experiment [1] is 20%. Moreover, the outcome in [2] was Active. The result in experiment [3] was inactive.

Regarding `Cn1ncc2c(NCc3ccccc3F)ncnc21`, the %max in experiment [1] is 14%. Moreover, the result in [2] was Active. The outcome in experiment [3] was inactive.

As for `Cn1ncc2c(NCCc3ccccc3F)ncnc21`, the %max in [1] came to 10%. Besides, in [2], the result was Active. In experiment [3], the result was inactive.

Regarding `Cn1ncc2c(NCc3ccccc3)ncnc21`, the %max in experiment [1] was found to be 13%. Further, the outcome in [2] was Active. Besides, the outcome in [3] was inactive.

As for `Cn1ncc2c(NCc3cccc(F)c3)ncnc21`, in experiment [1], the %max turned out to be 24%. Moreover, the result in experiment [2] was Active. Also, in experiment [3], the outcome was inactive.

Consider `NC[C@H]1O[C@H](O[C@H]2[C@H](O)[C@@H](O[C@H]3O[C@H](CO)[C@@H](O)[C@H](N)[C@H]3O)[C@H](N)C[C@@H]2N)[C@H](O)[C@@H](O)[C@@H]1O` [KANAMYCIN], for which the zone of inhibition at 1000 µM worked out at 30 mm in experiment [6] and 0 mm in experiment [9]. The zone of inhibition at 500 µM in experiment [7] came to 22 mm; in [10], 0 mm. Also, the zone of inhibition at 100 µM in experiment [8] was determined as 6 mm; in [11], 0 mm.

For the molecule `CC(C)(C)n1ncc2c(NCc3ccccc3)ncnc21`, the %max in experiment [1] was 15%. In addition, the result in experiment [2] was Active. Further, the result in experiment [3] was inactive.

For `CC(C)(C)n1ncc2c(NCc3ccco3)ncnc21`, the %max in [1] is 17%. For the same molecule, in [2], the result was Active. The outcome in [3] was inactive.

For `CC(C)(C)n1ncc2c(NCCc3c(F)cccc3Cl)ncnc21`, the %max was determined as 10% in experiment [4] and 17% in experiment [1]. For the same molecule, the outcome in [5] and in experiment [3] was inactive. In addition, the outcome in [2] was Active.

Take `C[C@H](Nc1ncnc2c1cnn2C)c1ccccc1`: the %max in experiment [1] is 17%. The result in [2] was Active. Moreover, the result in [3] was inactive.

The record behind these values is ChEMBL document CHEMBL3734707, “Synthesis and biological evaluation of pyrazolopyrimidines as potential antibacterial agents” (2015).
